Target: T1, Carbonic Anhydrase IX (CA IX) (Homo sapiens, UniProt Q16790)
T1 construct: gene CA9; AA 1-459, GST tag
Test: CA inhibitor screening kit (BioVision K473-100), recombinant CA IX, absorbance at […] nm, kinetic mode
Assay type: biochemical

IC50	SMILES
0.336 µM	Nc1cc(Nc2ccc(S(=O)(=O)Nc3ccccn3)cc2)n(-c2ccccc2)n1 [compound 3, 4-((3-Amino-1-phenyl-1H-pyrazol-5-yl)amino)-N-(pyridin-2-yl) benzenesulfonamide]
0.128 µM	Nc1nn(-c2ccccc2)c(-c2ccccc2)c1C(=O)Nc1ccc(S(=O)(=O)Nc2ccccn2)cc1 [compound 11, 3-Amino-1,5-diphenyl-N-(4-(N-(pyridin-2-yl)sulfamoyl)phenyl)-1H-pyrazole-4-carboxamide]
